The source of these data is US10017501B2, “Benzimidazole derivatives as bromodomain inhibitors” (Gilead Sciences, Inc., priority 2013, dated 2018).

The subject of the first assay is MT-4 cells. In words: MT-4 proliferation assay. It counts as cell-based, human. The conditions noted are these: Homo sapiens, MT4, 120 h, read-out: MT4 Assay (EC50, nM). As to the method: MT-4 Proliferation Assay:
Compounds were tested in a standardized high-throughput 384-well assay format. Each compound was serially diluted 3-fold in 100% DMSO in polypropylene 384-well plates using a Biomek FX Workstation, and 0.4 μL compound added to an assay plate containing 40 μL RPMI media. Compounds were arranged in a horizontal pattern, with 10 concentrations per compound, and 8 compounds added per plate. Due to low DMSO tolerability, the final DMSO concentration never exceeded 0.5% (v/v). Each assay plate contained 10 μM Puromycin and 0.5% DMSO in RPMI-1640 as positive and negative controls respectively. MT-4 cells (HTLV-1 transformed, human T lymphoblastoid cells, NIH Aids Reagent program) were added in volumes of 35 μL per well and 2,000 cells per well using a Biotek uFlow Workstation (Biotek, Winooski, Vt.), and the plates subsequently incubated for 5 days at 37° C. in an incubator set at 5% CO2 and 90% humidity.
After 5 days, 22 μL Cell Titer Glo (Promega) was added to the assay plates with a Biotek uFlow Workstation. Plates were subsequently placed on a Perkin Elmer Envision Plate Reader for 5 minutes before the luminescence signal was read.
In general, EC50 refers to the concentration needed to bring the measured effect to its halfway point. Regarding `Cc1noc(C)c1-c1cc(S(=O)(=O)NC2CCCC2)c2nc([S+](C)[O-])[nH]c2c1` (stereo not shown) [Compound 1020-5, N-Cyclopentyl-6-(3,5-dimethylisoxazol-4-yl)-2-(methylsulfinyl)-1H-benzo[d]imidazole-4-sulfonamide], the EC50 turned out to be 329 nM.

Staying with this assay, now noted: Homo sapiens, MT4, 120 h; Table 1; 5 days, Cell Titer Glo; read-out: MT4 Assay (EC50).
For the compound `Cc1ccc2ncccc2c1-c1cc(-c2c(C)noc2C)cc2[nH]c(C(O)CCO)nc12` (stereo not shown) [Compound 1020-89, 1-(6-(3,5-dimethylisoxazol-4-yl)-4-(6-methylquinolin-5-yl)-1H-benzo[d]imidazol-2-yl)propane-1,3-diol], the EC50 was 104 nM.
Regarding `Cc1ccnc(C)c1-c1cc(-c2c(C)noc2C)cc2nc(C3CC3)[nH]c12` [Compound 1020-57, 4-(2-Cyclopropyl-7-(2,4-dimethylpyridin-3-yl)-1H-benzo[d]imidazol-5-yl)-3,5-dimethylisoxazole], the EC50 was found to be 13.6 nM.
Same read-out and setting: the value for `Cc1ccc2ncccc2c1-c1cc(-c2c(C)noc2C)cc2[nH]c(-c3cnn(C)c3)nc12` [Compound 1020-88, 3,5-Dimethyl-4-(2-(1-methyl-1H-pyrazol-4-yl)-4-(6-methylquinolin-5-yl)-1H-benzo[d]imidazol-6-yl)isoxazole] was 45.2 nM.
Same read-out and setting: the same measure for `CCC(O)(CC)c1cc(-c2c(C)noc2C)cc2c1nc(C1CC1)n2C` [Compound 1020-132, 3-(2-Cyclopropyl-6-(3,5-dimethylisoxazol-4-yl)-1-methyl-1H-benzo[d]imidazol-4-yl)pentan-3-ol]: 544 nM; for `Cc1n[nH]c(C)c1-c1cc(-c2c(C)noc2C)cc2nc(N)[nH]c12` [Compound 1020-96, 4-(3,5-Dimethyl-1H-pyrazol-4-yl)-6-(3,5-dimethylisoxazol-4-yl)-1H-benzo[d]imidazol-2-amine]: 318 nM.
Still for that read-out and setting: the value for `CSc1nc2c(S(=O)(=O)NC3CCCC3)cc(-c3c(C)noc3C)cc2[nH]1` [Compound 1020-4, N-Cyclopentyl-6-(3,5-dimethylisoxazol-4-yl)-2-(methylthio)-1H-benzo[d]imidazole-4-sulfonamide] was 192 nM; that for `Cc1noc(C)c1-c1cc(N2C(=O)CCC2C)c2nc(C3CC3)[nH]c2c1` (stereo not shown) [Compound 1020-136, 1-(2-Cyclopropyl-6-(3,5-dimethylisoxazol-4-yl)-1H-benzo[d]imidazol-4-yl)-5-methylpyrrolidin-2-one] was 335 nM.
Take `Cc1noc(C)c1-c1cc(S(=O)(=O)NC2CCCC2)c2nc(NCC(F)(F)F)[nH]c2c1` [Compound 1020-148, N-Cyclopentyl-6-(3,5-dimethylisoxazol-4-yl)-2-(2,2,2-trifluoroethylamino)-1H-benzo[d]imidazole-4-sulfonamide]: the EC50 came out at 495 nM.
The same measure, in the same setting: the value for `Cc1ccc2ncccc2c1-c1cc(-c2c(C)noc2C)cc2[nH]c(C(F)(F)F)nc12` [Compound 1020-92, 3,5-Dimethyl-4-(4-(6-methylquinolin-5-yl)-2-(trifluoromethyl)-1H-benzo[d]imidazol-6-yl)isoxazole] was 73.1 nM.
Same read-out and setting: the value for `Cc1ccnc(C)c1-c1cc(-c2c(C)noc2C)cc2[nH]cnc12` [Compound 1020-84, 4-(4-(2,4-Dimethylpyridin-3-yl)-1H-benzo[d]imidazol-6-yl)-3,5-dimethylisoxazole] was 236 nM; that for `CCC(CC)c1cc(-c2c(C)noc2C)cc2[nH]c(C3CC3)nc12` [Compound 1020-120, 4-(2-Cyclopropyl-4-(pentan-3-yl)-1H-benzo[d]imidazol-6-yl)-3,5-dimethylisoxazole] was 48.8 nM.
Still for that read-out and setting: the value for `Cc1noc(C)c1-c1cc(S(=O)(=O)NC2CCCC2)c2nc(Cc3ccccc3)[nH]c2c1` [Compound 1020-141, 2-Benzyl-N-cyclopentyl-6-(3,5-dimethylisoxazol-4-yl)-1H-benzo[d]imidazole-4-sulfonamide] was 887 nM; that for `Cc1n[nH]c(C)c1-c1cc(-c2c(C)noc2C)cc2[nH]c(NC3CC3)nc12` [Compound 1020-81, N-Cyclopropyl-4-(3,5-dimethyl-1H-pyrazol-4-yl)-6-(3,5-dimethylisoxazol-4-yl)-1H-benzo[d]imidazol-2-amine] was 7.6 nM; that for `Cc1n[nH]c(C)c1-c1cc(-c2c(C)noc2C)cc2[nH]c(C3CCC3)nc12` [Compound 1020-75, 4-(2-Cyclobutyl-4-(3,5-dimethyl-1H-pyrazol-4-yl)-1H-benzo[d]imidazol-6-yl)-3,5-dimethylisoxazole] was 18.4 nM.
Take `Cc1noc(C)c1-c1cc(S(=O)(=O)NC2CCCC2)c2nc(NCC3CC3)[nH]c2c1` [Compound 1020-1, N-Cyclopentyl-2-(cyclopropylmethylamino)-6-(3,5-dimethylisoxazol-4-yl)-1H-benzo[d]imidazole-4-sulfonamide]: the EC50 turned out to be 193 nM.
On the same count and under the same terms, the same measure for `Cc1noc(C)c1-c1cc(C(O)C2CCCC2)c2nc(C3CC3)[nH]c2c1` (stereo not shown) [Compound 1020-121, Cyclopentyl(2-cyclopropyl-6-(3,5-dimethylisoxazol-4-yl)-1H-benzo[d]imidazol-4-yl)methanol]: 42.8 nM; for `Cc1n[nH]c(C)c1-c1cc(-c2c(C)noc2C)cc2nc(C3CC3(F)F)[nH]c12` (stereo not shown) [Compound 1020-78, 4-(2-(2,2-Difluorocyclopropyl)-7-(3,5-dimethyl-1H-pyrazol-4-yl)-1H-benzo[d]imidazol-5-yl)-3,5-dimethylisoxazole]: 25.7 nM; for `Cc1ccc2ncccc2c1-c1cc(-c2c(C)noc2C)cc2nc(C3CC3)n(C)c12` [Compound 1020-74, 4-(2-Cyclopropyl-1-methyl-7-(6-methylquinolin-5-yl)-1H-benzo[d]imidazol-5-yl)-3,5-dimethylisoxazole]: 15.3 nM.
`CC/C=C(\CC)c1cc(-c2c(C)noc2C)cc2nc(C3CC3)[nH]c12` [Compound 1020-28, (E)-4-(2-Cyclopropyl-4-(hex-3-en-3-yl)-1H-benzo[d]imidazol-6-yl)-3,5-dimethylisoxazole]: the EC50 turned out to be 51.6 nM.
On the same count and under the same terms, the same measure for `CCC1CCC(=O)N1c1cc(-c2c(C)noc2C)cc2[nH]c(C3CC3)nc12` (stereo not shown) [Compound 1020-137, 1-(2-Cyclopropyl-6-(3,5-dimethylisoxazol-4-yl)-1H-benzo[d]imidazol-4-yl)-5-ethylpyrrolidin-2-one]: 113 nM; for `Cc1noc(C)c1-c1cc(-c2cccnc2-c2ccccc2)c2nc(C3CC3)[nH]c2c1` [Compound 1020-19, 4-(2-Cyclopropyl-4-(2-phenylpyridin-3-yl)-1H-benzo[d]imidazol-6-yl)-3,5-dimethylisoxazole]: 24.4 nM; for `Cc1noc(C)c1-c1cc(C(O)(c2ccccc2)c2ccccc2)c2nc(C3CC3)[nH]c2c1` [Compound 1020-102, (2-Cyclopropyl-6-(3,5-dimethylisoxazol-4-yl)-1H-benzo[d]imidazol-4-yl)diphenylmethanol]: 49.7 nM.
Same read-out and setting: the same measure for `Cc1n[nH]c(C)c1-c1cc(-c2c(C)noc2C)cc2nc(C3CC3)n(C)c12` [Compound 1020-72, 4-(2-cyclopropyl-7-(3,5-dimethyl-1H-pyrazol-4-yl)-1-methyl-1H-benzo[d]imidazol-5-yl)-3,5-dimethylisoxazole]: 6.5 nM; for `Cc1noc(C)c1-c1cc(/C=C/c2ccccc2)c2[nH]c(C3CC3)nc2c1` [Compound 1020-37, (E)-4-(2-cyclopropyl-4-styryl-1H-benzo[d]imidazol-6-yl)-3,5-dimethylisoxazole]: 518 nM.
